Among the data in ChEMBL document CHEMBL1148610, “Novel potential anticancer naphthyl phosphoramidates of BVdU: separation of diastereoisomers and assignment of the absolute configuration of the phosphorus center” (J Med Chem, 2006) are EC50 values, retold here.

pEC50: −log10 of the molar value.

Holding throughout (type): functional, cell-based
Experiment [1] has as its system PC-3. Description: Cytostatic activity against human prostate cancer PC3 cell line.
Experiment [2] concerns MDA-MB-231. Description: Cytostatic activity against human breast cancer MDA-MB-231 cell line.
The subject of experiment [3] is T-24. Description: Cytostatic activity against human bladder cancer T24 cell line.

By pEC50 is commonly meant −log10 of the EC50, conventionally taken in molar units.

As for `COC(=O)[C@H](C(C)C)P(=O)(OCC1OC(n2cc(/C=C/Br)c(=O)[nH]c2=O)CC1O)Oc1cccc2ccccc12` (stereo partly specified), the figures for the pEC50 in experiment [1], in experiment [2] and in experiment [3] were 4.80, 4.83 and 4.36, respectively.

As for `COC(=O)[C@@H](NP(=O)(OCC1OC(n2cc(/C=C/Br)c(=O)[nH]c2=O)CC1O)Oc1cccc2ccccc12)c1ccccc1` (stereo partly specified), the values for the negative logarithm of the EC50 (pEC50) in experiment [1] and in experiment [2] were 5.77 and 3.98, respectively.

Turning to `COC(=O)C(C)(C)NP(=O)(OC[C@H]1O[C@@H](n2cc(/C=C/Br)c(=O)[nH]c2=O)C[C@@H]1O)Oc1cccc2ccccc12` (stereo partly specified), the pEC50 in experiment [1] is 4.18; in experiment [2] it was 6.49.

For the compound `C[C@H](NP(=O)(OCC1OC(n2cc(/C=C/Br)c(=O)[nH]c2=O)CC1O)Oc1cccc2ccccc12)C(=O)OC(C)(C)C` (stereo partly specified), the pEC50 is 4.96 in experiment [1], 5.32 in experiment [2] and 5.40 in experiment [3].

For `O=C(OCc1ccccc1)[C@H](Cc1ccccc1)NP(=O)(OCC1OC(n2cc(/C=C/Br)c(=O)[nH]c2=O)CC1O)Oc1cccc2ccccc12` (stereo partly specified), the values for the pEC50 in experiment [1], in experiment [2] and in experiment [3] were 5.24, 5.71 and 3.57, respectively.

Regarding `C[C@H](NP(=O)(O)Oc1cccc2ccccc12)C(=O)OCc1ccccc1`, the negative logarithm of the EC50 (pEC50) in experiment [1] is 5.77; in experiment [2], 4.82.

On to `C[C@@H](NP(=O)(OCC1OC(n2cc(/C=C/Br)c(=O)[nH]c2=O)CC1O)Oc1cccc2ccccc12)C(=O)OCc1ccccc1` (stereo partly specified), for which the pEC50 in experiment [1] was 5.21; in experiment [2], 5.20; in experiment [3] it was 5.55.

For `COC(=O)[C@H](CCSC)NP(=O)(OCC1OC(n2cc(/C=C/Br)c(=O)[nH]c2=O)CC1O)Oc1cccc2ccccc12` (stereo partly specified), the pEC50 was 4.35 in experiment [1], 4.55 in experiment [2] and 4.71 in experiment [3].

Turning to `CC(C)[C@H](NP(=O)(OCC1OC(n2cc(/C=C/Br)c(=O)[nH]c2=O)CC1O)Oc1cccc2ccccc12)C(=O)OCc1ccccc1` (stereo partly specified), the pEC50 is 5.08 in experiment [1], 5.23 in experiment [2] and 4.90 in experiment [3].

As for `CCC(C)[C@H](NP(=O)(OC[C@H]1O[C@@H](n2cc(/C=C/Br)c(=O)[nH]c2=O)C[C@@H]1O)Oc1cccc2ccccc12)C(=O)OC` (stereo partly specified), the pEC50 in experiment [1] was 5.16; in experiment [2], 5.82.

For `COC(=O)[C@H](Cc1ccccc1)NP(=O)(OCC1OC(n2cc(/C=C/Br)c(=O)[nH]c2=O)CC1O)Oc1cccc2ccccc12` (stereo partly specified), the pEC50 in experiment [1] is 4.99; in experiment [2], 5.07; in experiment [3], 5.28.

As for `CCC(C)[C@H](NP(=O)(OC[C@H]1O[C@@H](n2cc(/C=C/Br)c(=O)[nH]c2=O)C[C@@H]1O)Oc1cccc2ccccc12)C(=O)OCc1ccccc1` (stereo partly specified), the values for the pEC50 in experiment [1] and in experiment [2] were 5.85 and 3.89, respectively.

As for `CC(C)(NP(=O)(OC[C@H]1O[C@@H](n2cc(/C=C/Br)c(=O)[nH]c2=O)C[C@@H]1O)Oc1cccc2ccccc12)C(=O)OCc1ccccc1` (stereo partly specified), the negative logarithm of the EC50 (pEC50) in experiment [1] was 5.82; in experiment [2] it was 5.57.

With `COC(=O)[C@@H]1CCCN1P(=O)(OCC1OC(n2cc(/C=C/Br)c(=O)[nH]c2=O)CC1O)Oc1cccc2ccccc12` (stereo partly specified), the results for the negative logarithm of the EC50 (pEC50) in experiment [1], in experiment [2] and in experiment [3] were 4.98, 5.19 and 6.40, respectively.
